Assay results reported in patent publication US20250295618A1, “PARASYMPATHETIC NERVE ACTIVATION AGENT AND PARASYMPATHETIC NERVE ACTIVATION COMPOSITION” (MARUZEN PHARMACEUTICALS CO., LTD., priority 2022, published 2025).

Columns and labels:
Format in all cases: in vivo, male Whistar rats
[1] = tested on: parasympathetic nerve (vagus nerve) innervating the stomach; experiment: Test Example 1: neural activity of distal branches of vagus (parasympathetic) nerve for the stomach (GVNA) after intragastric administration; details: urethane-anesthetized rats; intragastric 0.015 mg/0.5 mL/300 g of body weight; measured for 60 minutes; percentage of value at 0 minutes (100%); FIG. 1
Description: (§1) The effect of the intragastric administration of the compound represented by Structural Formula (1) on the activity of the parasympathetic nerve innervating the stomach, the pancreas, or the intestine was tested in the following manner. For the experiment, male Whistar rats (approximately 9 weeks old) each having a body weight of approximately 300 g were kept in a 24° C. thermostatic animal room for 1 week or longer with a 12-hour light-dark cycle (lighting from 8:00 to 20:00). On the day of the experiment, the rats were fasted for 3 hours, followed by anesthetizing with urethane. A cannula for intragastric administration was inserted into each of the rats, and then distal branches of the parasympathetic nerve (vagus nerve) innervating the stomach, the pancreas, or the intestines (small intestine and large intestine) were lifted with a silver electrode, and the electrical activity thereof was measured. […] In addition, as a control, water serving as a solvent was intragastrically administered using the cannula at a dose of 0.5 mL/300 g of body weight, and the change in the neural activity of the distal branches of the above parasympathetic nerves was measured electrophysiologically for 60 minutes. […]

[2] = tested on: parasympathetic nerve (vagus nerve) innervating the pancreas; experiment: Test Example 1: neural activity of distal branches of vagus (parasympathetic) nerve for the pancreas (PVNA) after intragastric administration; details: urethane-anesthetized rats, measured for 60 minutes, percentage of value at 0 minutes (100%), FIG. 2
Description: as §1

[3] = tested on: parasympathetic nerve (vagus nerve) innervating the intestines (small intestine and large intestine); experiment: Test Example 1: neural activity of distal branches of vagus (parasympathetic) nerve for the intestine (IVNA) after intragastric administration; details: urethane-anesthetized rats, measured for 60 minutes, percentage of value at 0 minutes (100%), FIG. 3
Description: as §1

[4] = intragastric 0.00015 mg/0.5 mL/300 g of body weight
[5] = intragastric 0.0015 mg/0.5 mL/300 g of body weight

COc1cc(CCC(=O)O)ccc1O [3-(4-hydroxy-3-methoxyphenyl)propionic acid] was tested, and the “gastric vagal nerve activity (GVNA) value compared with the water group” value [1] was “GVNA value higher than the GVNA value of the group to which water serving as the solvent was administered”, the “pancreatic vagal nerve activity (PVNA) value compared with the water group” value [2, 4] was “PVNA value higher than the PVNA value of the group to which water serving as the solvent was administered” and the “pancreatic vagal nerve activity (PVNA) value compared with the water group” value [2, 5] was “PVNA value higher than the PVNA value of the group to which water serving as the solvent was administered”. For the same molecule, the “intestinal vagal nerve activity (IVNA) value compared with the water group” value [3, 4] was “IVNA values higher than the IVNA value of the group to which water serving as the solvent was administered” and the “intestinal vagal nerve activity (IVNA) value compared with the water group” value [3, 5] was “IVNA values higher than the IVNA value of the group to which water serving as the solvent was administered”.
